Measured values from article PMC11079024, “Identification of a family of species-selective complex I inhibitors as potential anthelmintics” (Nature Communications, 2024).
Like-named read-outs stand apart in the source and are kept apart here.

What was measured:
[1] = tested on: ben-1 mutant (ECA882) C. elegans; experiment: microbe, parasite or virus in culture; details: Caenorhabditis elegans; for viability at 1 µM / viability at 2 µM / viability at 3.9 µM / viability at 15.6 µM / viability at 31.3 µM / viability at 62.5 µM / viability at 125 µM / viability at 250 µM / viability at 500 µM / viability at 1000 µM: read-out: C. elegans ben-1(e1880) development/viability
Summary of the method: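 Development and viability scored from single well images as total worm pixels divided by the matching DMSO control value, mean of ≥3 replicates. Worms added as synchronized L1s to HB101 suspension in liquid NGM with compound (1% DMSO v/v), grown 6 days at 20 °C with shaking.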

[2] = target: B. taurus (heart) complex I (Bos taurus, UniProt P03887+P17694+P42026); experiment: biochemical; format: biochemical; details: for IC50: B. taurus heart mitochondria, read-out: B. taurus Complex I IC50; for activity at 0.0001 µM / activity at 0.0005 µM / activity at 0.001 µM / activity at 0.0025 µM / activity at 0.005 µM / activity at 0.013 µM / activity at 0.025 µM / activity at 0.063 µM / activity at 0.125 µM / activity at 0.313 µM / activity at 0.625 µM / activity at 1.5 µM / activity at 3 µM / activity at 15 µM / activity at 37.5 µM / activity at 75 µM: read-out: B. taurus mitochondrial complex I activity; for Log IC50 B. taurus complex I: log10 of IC50 in µM, B. taurus mitochondria
Summary of the method: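 Complex I activity followed as DCIP reduction (600 nm, 30 s reads, 15 min) with 80 μM NADH and 60 μM decylubiquinone in 25 mM KPi pH 7.5 containing 2 μM antimycin A and 2 mM KCN. Freeze-thawed mouse or bovine heart mitochondria at 0.2 mg/mL; initial-rate percent of solvent control, single-point 100 μM or dose-response.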

[3] = tested on: L1 wild-type C. elegans; details: for Screen "Hit": 50 μM
[4] = in vitro; details: human; for viability at 2 days, 3.13 µM / viability at 2 days, 6.25 µM / viability at 2 days, 12.5 µM / viability at 2 days, 25 µM / viability at 2 days, 50 µM / viability at 2 days, 100 µM: HEK293 cells (Flp-In-293)
[5] = tested on: L1 wild-type C. elegans; experiment: microbe, parasite or virus in culture; details: Caenorhabditis elegans, read-out: C. elegans KCN Survival Assay LC50, estimated from fitted dose-response curves; mean of at least two biological replicates
[6] = read-out: C. elegans (ben-1) Development & Viability Assay LC50
[7] = read-out: C. elegans ben-1 log10 LC50 (converted)
[8] = estimated from fitted dose-response curves
[9] = Dose 0.2 µM, mean of at least three biological replicates
[10] = HEK293 Cell Viability Assay LC50, HEK293 cells, estimated from fitted dose-response curves, mean of at least two biological replicates
[11] = hit = relative motility below 0.25 3 hours after removal of KCN

Chain of B. taurus (heart) complex I (P03887 whole entry): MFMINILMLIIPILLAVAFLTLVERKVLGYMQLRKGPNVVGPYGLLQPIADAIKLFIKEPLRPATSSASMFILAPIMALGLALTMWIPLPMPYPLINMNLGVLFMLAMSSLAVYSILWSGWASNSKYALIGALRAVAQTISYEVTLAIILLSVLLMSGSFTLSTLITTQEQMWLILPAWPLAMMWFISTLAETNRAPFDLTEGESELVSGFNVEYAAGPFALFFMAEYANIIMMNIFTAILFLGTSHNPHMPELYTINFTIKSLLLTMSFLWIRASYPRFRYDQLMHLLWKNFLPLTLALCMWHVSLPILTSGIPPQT
Chain of B. taurus (heart) complex I (P17694 34-463): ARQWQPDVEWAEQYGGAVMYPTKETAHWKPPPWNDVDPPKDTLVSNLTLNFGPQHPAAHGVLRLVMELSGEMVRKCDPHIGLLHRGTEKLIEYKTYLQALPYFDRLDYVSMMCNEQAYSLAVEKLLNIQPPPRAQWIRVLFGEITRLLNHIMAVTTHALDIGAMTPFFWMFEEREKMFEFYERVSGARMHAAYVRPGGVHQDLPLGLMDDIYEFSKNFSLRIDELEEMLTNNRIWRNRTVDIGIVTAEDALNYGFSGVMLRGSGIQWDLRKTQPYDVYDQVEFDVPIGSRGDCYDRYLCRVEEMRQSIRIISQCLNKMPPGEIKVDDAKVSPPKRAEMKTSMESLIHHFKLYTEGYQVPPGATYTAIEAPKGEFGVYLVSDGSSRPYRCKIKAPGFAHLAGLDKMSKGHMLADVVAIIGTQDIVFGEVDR
Chain of B. taurus (heart) complex I (P42026 38-216): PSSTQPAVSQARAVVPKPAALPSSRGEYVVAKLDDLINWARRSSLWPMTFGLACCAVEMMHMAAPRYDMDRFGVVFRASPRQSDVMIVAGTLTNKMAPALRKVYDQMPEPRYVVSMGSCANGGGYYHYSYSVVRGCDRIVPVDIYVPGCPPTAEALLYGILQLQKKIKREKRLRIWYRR

Clc1ccccc1OCCCCn1cnc2ccccc21 [Compound 7925804]
LC50 [1, 6]: 49.2 µM
viability at 1 µM [1]: 91.8%
viability at 2 µM [1]: 87.2%
viability at 3.9 µM [1]: 83.7%
viability at 15.6 µM [1]: 79%
viability at 31.3 µM [1]: 79.6%
viability at 62.5 µM [1]: 18.3%
viability at 125 µM [1]: 6.8%
viability at 250 µM [1]: 4.1%
viability at 500 µM [1]: 3.2%
viability at 1000 µM [1]: 3.8%
LC50 [1, 7]: 49.2 µM
IC50 [2, 8]: 1.35 µM
activity at 0.0001 µM [2]: 106%
activity at 0.0005 µM [2]: 116%
activity at 0.001 µM [2]: 117%
activity at 0.0025 µM [2]: 118%
activity at 0.005 µM [2]: 118%
activity at 0.013 µM [2]: 117%
activity at 0.025 µM [2]: 116%
activity at 0.063 µM [2]: 111%
activity at 0.125 µM [2]: 99.3%
activity at 0.313 µM [2]: 90.5%
activity at 0.625 µM [2]: 75.5%
activity at 1.5 µM [2]: 54.8%
activity at 3 µM [2]: 39.2%
activity at 15 µM [2]: 9.9%
activity at 37.5 µM [2]: 3.53%
activity at 75 µM [2]: 2.37%
Log IC50 B. taurus complex I [2]: 0.13 µM
Screen "Hit" ([3]; KCN survival assay, hit = relative motility below 0.25): Y (hits were identified as compounds that reduced relative motility below 0.25 (75% reduction))
C. elegans KCN Survival [3, 9]: 1.043
C. elegans KCN Survival ([3]; Dose 0.39 µM): 1.064
C. elegans KCN Survival ([3]; Dose 1.56 µM): 1.052
C. elegans KCN Survival ([3]; Dose 3.13 µM): 1.018
C. elegans KCN Survival ([3]; Dose 6.25 µM): 0.644
C. elegans KCN Survival ([3]; Dose 12.5 µM): 0.155
C. elegans KCN Survival ([3]; Dose 25 µM): 0.142
C. elegans KCN Survival ([3]; Dose 50 µM): 0.136
C. elegans KCN Survival ([3]; Dose 100 µM): 0.181
CC50 at 2 days [4, 10]: 40.2 µM
viability at 2 days, 3.13 µM ([4]; HEK293 viability, Dose 3.13 µM): 100%
viability at 2 days, 6.25 µM ([4]; HEK293 viability): 99.5%
viability at 2 days, 12.5 µM ([4]; HEK293 viability): 97.9%
viability at 2 days, 25 µM ([4]; HEK293 viability): 73.8%
viability at 2 days, 50 µM ([4]; HEK293 viability): 40.2%
viability at 2 days, 100 µM ([4]; HEK293 viability): 8%
LC50 [5]: 6.97 µM

Cc1ccc(SCCCn2cnc3ccccc32)cc1 [Compound 7926035]
LC50 [1, 6]: 69.8 µM
viability at 1 µM [1]: 94.4%
viability at 2 µM [1]: 87.2%
viability at 3.9 µM [1]: 86.3%
viability at 15.6 µM [1]: 91.5%
viability at 31.3 µM [1]: 76.7%
viability at 62.5 µM [1]: 57.7%
viability at 125 µM [1]: 5.4%
viability at 250 µM [1]: 2.6%
viability at 500 µM [1]: 3.4%
viability at 1000 µM [1]: 5.6%
LC50 [1, 7]: 69.8 µM
IC50 [2, 8]: 3.59 µM
activity at 0.0001 µM [2]: 101%
activity at 0.0005 µM [2]: 105%
activity at 0.001 µM [2]: 99.3%
activity at 0.0025 µM [2]: 106%
activity at 0.005 µM [2]: 102%
activity at 0.013 µM [2]: 101%
activity at 0.025 µM [2]: 100%
activity at 0.063 µM [2]: 98.8%
activity at 0.125 µM [2]: 97%
activity at 0.313 µM [2]: 98.3%
activity at 0.625 µM [2]: 78.8%
activity at 1.5 µM [2]: 78.8%
activity at 3 µM [2]: 41.2%
activity at 15 µM [2]: 10%
activity at 37.5 µM [2]: 2.81%
activity at 75 µM [2]: 1.94%
Log IC50 B. taurus complex I [2]: 0.56 µM
Screen "Hit" [3, 11]: Y (hits were identified as compounds that reduced relative motility below 0.25 (75% reduction))
C. elegans KCN Survival [3, 9]: 0.990
C. elegans KCN Survival ([3]; Dose 0.39 µM): 0.961
C. elegans KCN Survival ([3]; Dose 1.56 µM): 0.929
C. elegans KCN Survival ([3]; Dose 3.13 µM): 0.707
C. elegans KCN Survival ([3]; Dose 6.25 µM): 0.388
C. elegans KCN Survival ([3]; Dose 12.5 µM): 0.123
C. elegans KCN Survival ([3]; Dose 25 µM): 0.118
C. elegans KCN Survival ([3]; Dose 50 µM): 0.139
C. elegans KCN Survival ([3]; Dose 100 µM): 0.184
CC50 at 2 days [4, 10]: 71.4 µM
viability at 2 days, 3.13 µM ([4]; HEK293 viability, Dose 3.13 µM): 90.8%
viability at 2 days, 6.25 µM ([4]; HEK293 viability): 96.6%
viability at 2 days, 12.5 µM ([4]; HEK293 viability): 98.4%
viability at 2 days, 25 µM ([4]; HEK293 viability): 97.6%
viability at 2 days, 50 µM ([4]; HEK293 viability): 65.6%
viability at 2 days, 100 µM ([4]; HEK293 viability): 30.4%
LC50 [5]: 4.71 µM

CC(C)Oc1cccc(OCCn2cnc3ccccc32)c1 [Compound 7926496]
LC50 [1, 6]: 388 µM
viability at 1 µM [1]: 86.1%
viability at 2 µM [1]: 87.5%
viability at 3.9 µM [1]: 87.4%
viability at 15.6 µM [1]: 90.6%
viability at 31.3 µM [1]: 95.8%
viability at 62.5 µM [1]: 91.5%
viability at 125 µM [1]: 81%
viability at 250 µM [1]: 86.3%
viability at 500 µM [1]: 13.9%
viability at 1000 µM [1]: 3.6%
LC50 [1, 7]: 388 µM
IC50 [2]: 2.19 µM
activity at 0.0001 µM [2]: 89.9%
activity at 0.0005 µM [2]: 91.2%
activity at 0.001 µM [2]: 91.7%
activity at 0.0025 µM [2]: 85.5%
activity at 0.005 µM [2]: 94.5%
activity at 0.013 µM [2]: 90.6%
activity at 0.025 µM [2]: 91.4%
activity at 0.063 µM [2]: 86%
activity at 0.125 µM [2]: 80.2%
activity at 0.313 µM [2]: 76.3%
activity at 0.625 µM [2]: 69.4%
activity at 1.5 µM [2]: 53.2%
activity at 3 µM [2]: 36%
activity at 15 µM [2]: 9.56%
activity at 37.5 µM [2]: 1.81%
activity at 75 µM [2]: 1.89%
Log IC50 B. taurus complex I [2]: 0.34 µM
Screen "Hit" [3, 11]: Y (hits were identified as compounds that reduced relative motility below 0.25 (75% reduction))
C. elegans KCN Survival [3, 9]: 1.017
C. elegans KCN Survival ([3]; Dose 0.39 µM): 1.017
C. elegans KCN Survival ([3]; Dose 1.56 µM): 1.072
C. elegans KCN Survival ([3]; Dose 3.13 µM): 1.070
C. elegans KCN Survival ([3]; Dose 6.25 µM): 1.047
C. elegans KCN Survival ([3]; Dose 12.5 µM): 0.937
C. elegans KCN Survival ([3]; Dose 25 µM): 0.437
C. elegans KCN Survival ([3]; Dose 50 µM): 0.153
C. elegans KCN Survival ([3]; Dose 100 µM): 0.199
CC50 at 2 days [4]: 94.5 µM
viability at 2 days, 6.25 µM ([4]; HEK293 viability): 97.4%
viability at 2 days, 12.5 µM ([4]; HEK293 viability): 96.9%
viability at 2 days, 25 µM ([4]; HEK293 viability): 97.3%
viability at 2 days, 50 µM ([4]; HEK293 viability): 85.9%
viability at 2 days, 100 µM ([4]; HEK293 viability): 43.4%
viability ([4]; HEK293 viability, Dose 3.13 µM): 91.5%
LC50 [5]: 23 µM
